Tests used:
Type in all cases: cell-based, human
MAT2A [1] = assay: MAT2A mRNA levels by real-time PCR in HT-29 cells; conditions: for MAT2A mRNA levels after growth factor: growth factor 100 ng/ml
Method: (§1) HT-29 and RKO cells were obtained from the Cell Culture Core of the USC Liver Disease Research Center and grown according to instructions provided by the American Type Culture Collection (ATCC, Rockville, Md.). Prior to treatment with growth factors, SAMe or MTA, medium was changed to 0.1% FBS overnight.
RNA interference (RNAi) experiments were performed using Lipofectamine RNAiMax (Invitrogen) according to the manufacturer's instructions. Small interfering RNA (siRNA) oligonucleotides for MAT2A and scrambled siRNA were synthesized by the USC Norris Comprehensive Cancer Center Microchemical Core Laboratory, and annealed to form duplexes. Stealth RNAi for MAT2A and Stealth RNAi negative control duplexes were synthesized by Invitrogen (Carlsbad, Calif.). The following siRNA sequences were used: si-MAT2A #1, 5′-[…]-3′ (sense) and 5′-[…]-3′ (antisense); si-control with scrambled sequence (negative control siRNA having no perfect matches to known human genes), 5′-[…]dTdT-3′ (sense) and 5% […]dTdT-3′ (antisense); stealth RNAi-MAT2A #5, 5′-[…]-3′ (sense) and 5′-[…]-3′ (antisense). […]
(§2) Total RNA was isolated by the EZgeno total RNA isolation kit (Genemega, San Giego, Calif.), and subjected to reverse transcription (RT) by using M-MLV Reverse transcriptase (Invitrogen). 2 μl of RT product was subjected to quantitative real-time PCR analysis. The primers and TaqMan probes for MAT2A, MAT2β and Universal PCR Master Mix were purchased from ABI (Foster City, Calif.). Hypoxanthine phosphoribosyl-transferase 1 (HPRT1) and ubiquitin C (UBC) were used as housekeeping genes (48). The thermal profile consisted of 1 cycle at 95° C. for 15 minutes followed by 40 cycles at 95° C. for 15 seconds and at 60° C. for 1 minute. The expression of MAT2A and MAT2β was checked by normalizing the Ct of MAT2A and MAT2β to that of the control housekeeping gene (HPRT1 or UBC) (49). The delta Ct obtained was used to find the relative expression of MAT genes according to the formula: Relative expression=2·^ΔCt, where ΔCt=ΔCt of MAT genes in colon cancer or treated cells—ΔCt of MAT genes in normal colon or control cells.

MAT2A [2] = assay: MAT2A mRNA levels by real-time PCR in RKO cells; conditions: for MAT2A mRNA levels after growth factor / MAT2A expression: RKO cells; for MAT2A mRNA levels after growth factor: growth factor 100 ng/ml
Method: as §1
RNA interference (RNAi) experiments were performed using Lipofectamine RNAiMax (Invitrogen) according to the manufacturer's instructions. Small interfering RNA (siRNA) oligonucleotides for MAT2A and scrambled siRNA were synthesized by the USC Norris Comprehensive Cancer Center Microchemical Core Laboratory, and annealed to form duplexes. Stealth RNAi for MAT2A and Stealth RNAi negative control duplexes were synthesized by Invitrogen (Carlsbad, Calif.). The following siRNA sequences were used: si-MAT2A #1, 5′-[…]-3′ (sense) and 5′-[…]-3′ (antisense); si-control with scrambled sequence (negative control siRNA having no perfect matches to known human genes), 5′-[…]dTdT-3′ (sense) and 5% […]dTdT-3′ (antisense); stealth RNAi-MAT2A #5, 5′-[…]-3′ (sense) and 5′-[…]-3′ (antisense). Transfection was allowed to proceed 72 hours before collection for different assays.
as §2

HT-29 cells [3] = assay: Cellular SAMe and MTA levels in HT-29 cells; conditions: mitogen 100 ng/ml
Method: as §1
(§3) Cellular SAMe and MTA levels were measured (51) and polyamine levels were determined (52).

HT-29 cells [4] = assay: Polyamine levels in HT-29 cells; conditions: 6 hrs, mitogen 100 ng/ml
Method: as §1, §3

[5] = test system: ornithine decarboxylase (ODC); assay: ODC expression by real-time PCR in HT-29 cells; conditions: 6 hrs, mitogen 100 ng/ml
SPD syn = SPD syn expression by real-time PCR in HT-29 cells; conditions: 6 hrs, mitogen 100 ng/ml
[6] = test system: spermine synthase (SPM syn); assay: SPM syn expression by real-time PCR in HT-29 cells; conditions: 6 hrs, mitogen 100 ng/ml
RKO cells = assay: Apoptosis in RKO cells (HOECHST staining, Annexin V)
Method: Apoptosis was assessed by HOECHST staining (34). Briefly, RKO cells were grown on coverslips and treated with RNAi#1 for 24 hrs and cells were fixed with paraformaldehyde and stained with 8 μg/ml HOECHST 33258 dye for 30 min. Cells with bright, fragmented, condensed nuclei were identified as apoptotic cells using the Nikon Eclipse TE300 fluorescent microscope. At least 5 random fields (at ×300) were counted.
In these experiments the total treatment duration was limited to 16 hrs to avoid the apoptotic effect. […] Apoptosis was measured by Hoechst staining or Annexin V and propidium iodide staining on flow cytometry.

HT-29 cells [7] = assay: Cell growth by MTT assay in HT-29 cells
Method: Cell growth was measured by the cell growth determination kit MTT from Sigma (St. Louis, Mo.). The MTT assay measures the cell proliferation rate and reduction in cell viability. HT-29 or RKO cells (1×10^4/well) were plated in 96-well plates and treated with growth factors (all 100 ng/ml), SAMe (0.5 to 5 mM), MTA (0.5 to 1 mM), alone or in combination for 16 hrs in serum-free medium. To determine the effect of MAT2A RNAi on mitogen-induced changes in MTT, cells were first treated with RNAi for 48 hrs followed by mitogen treatment for another 24 hrs.

| Substance | MAT2A mRNA levels after growth factor (MAT2A [1]; HT-29 cells) | MAT2A mRNA levels after growth factor (MAT2A [2]) | MTA level (HT-29 cells [3]; 6 hrs) [nmol/mg protein] | MTA level (HT-29 cells [3]; 16 hrs) [nmol/mg protein] | SAMe level (HT-29 cells [3]; 16 hrs) [nmol/mg protein] | Putrescine (HT-29 cells [4]) [nmol/mg protein] | Spermidine (HT-29 cells [4]) [nmol/mg protein] | Spermine (HT-29 cells [4]) [nmol/mg protein] | ODC expression [5] | SPD syn expression (SPD syn) | SPM syn expression [6] | further results |
| --- | --- | --- | --- | --- | --- | --- | --- | --- | --- | --- | --- | --- |
| EGF: Epidermal growth factor, mitogen | doubled | doubled | 0.054 ± 0.001 | 0.061 ± 0.010 | 0.63 ± 0.06 | 0.32 ± 0.01 | 2.19 ± 0.23 | 12.55 ± 2.04 | 1.5 ± 0.07 fold of control | 1.7 ± 0.08 fold of control | 1.1 ± 0.02 fold of control | SAMe level (HT-29 cells [3]; 6 hrs): 0.54 ± 0.04 nmol/mg protein |
| IGF-1: insulin-like growth factor-1, mitogen | doubled | doubled | 0.054 ± 0.003 | 0.087 ± 0.025 | 1.03 ± 0.03 | 0.22 ± 0.02 | 2.82 ± 0.09 | 12.55 ± 2.50 | 1.5 ± 0.08 fold of control | 2.2 ± 0.20 fold of control | 1.1 ± 0.03 fold of control |  |
| RNAi#1: siRNA against MAT2A, sense 5′-ACACAUUGGAUAUGAUGAUTT-3′ (antisense AUCAUCAUAUCCAAUGUGUTT; chemistry not given here) [reference compound] |  |  |  |  |  |  |  |  |  |  |  | lowering of MAT2A expression (MAT2A [2]): 90%; MAT2A expression (MAT2A [2]; 24 hrs): 25 % of scrambled control; MAT2A expression (MAT2A [2]; 48 hrs): 9 % of scrambled control; apoptosis (RKO cells; 24 hrs of RNAi treatment): significant increase in apoptosis; apoptosis (RKO cells; 48 hrs of RNAi treatment): more pronounced |
| RNAi#5: stealth RNAi against MAT2A, sense 5′-CCACCUACAGCCAAGUGGCAGAUUU-3′ (antisense AAAUCUGCCACUUGGCUGUAGGUGG; chemistry not given here) [reference compound] |  |  |  |  |  |  |  |  |  |  |  | MAT2A mRNA level (MAT2A [1]; HT-29 cells, RNAi 48 hrs): 50 % of control; lowering of MAT2A expression (MAT2A [1]; at 72 hrs): 50%; lowering of MTT value (HT-29 cells [7]; HT-29 or RKO cells, RNAi 48 hrs then another 24 hrs): about 30%; mitogenic effect of leptin, IGF-1 and EGF (HT-29 cells [7]; RNAi 48 hrs, then growth factors 24 hrs): blocked the ability of leptin, IGF-1 and EGF to fully exert their mitogenic effect; apoptosis (RKO cells; after 24 hrs): No apoptosis was detected |
